Where “and” joins values, the source holds several entries; their conditions need not be identical. Equal entries are not always repeated.
Details: [M+H]+; instrument: DT; single field

collision cross section (N2) | Compound
281.13 Å² | CCCCCCCCCCCCC=CC[C@@H](O)[C@H](COP(=O)([O-])OCC[N+](C)(C)C)NC(=O)CCCCCCCCCCCCCCC [SM(34:1)]
282.65 Å² and 284.23 Å² | CCCCCCCCCCCCCCCCCCCC(=O)O[C@H](COC(=O)CCCCCCCCCCC)COP(=O)([O-])OCC[N+](C)(C)C [PC(32:0)]
286.91 Å² | CCCCCCCCCCCCC=CC[C@@H](O)[C@H](COP(=O)([O-])OCC[N+](C)(C)C)NC(=O)CCCCCCCCCCCCCCCCC [SM(36:1)]
298.58 Å² | CCCCCCCCCCCCC=CC[C@@H](O)[C@H](COP(=O)([O-])OCC[N+](C)(C)C)NC(=O)CC=CCCCCCCCCCCCCCCCCCC [SM(40:2)]

Same assay, conditions: [M+Na]+; instrument: DT; single field

collision cross section (N2) | Compound
311.82 Å² and 313.77 Å² | CCCCCCCCC/C=C\CCCCCCCC(=O)OC[C@@H](COC(=O)CCCCCCCCCCCCCC)OC(=O)CCCCCCCCCCCCCC [TG(49:1)]
326.57 Å² and 325 Å² | CC/C=C\C/C=C\C/C=C\C/C=C\C/C=C\CCCCCC(=O)OC[C@@H](COC(=O)CCCCCCC/C=C\CCCCC)OC(=O)CCCCCCCCCCCCCCCCCC [TG(56:6)]

Details: [M+HCOO]-; instrument: DT; single field, calibrated with Agilent tune mix (Agilent)

collision cross section (N2) [Å²] | Compound
238.6 | CCCCCCCC/C=C\CCCCCCCC(=O)OC[C@@H](O)COP(=O)([O-])OCC[N+](C)(C)C [LPC(18:1)]
280.9 | CCCCCCCCCCCCC=CC[C@@H](O)[C@H](COP(=O)([O-])OCC[N+](C)(C)C)NC(=O)CCCCCCCCCCCCCCC [SM(34:1)]
286.4 | CCCCCCCCCCCCC=CC[C@@H](O)[C@H](COP(=O)([O-])OCC[N+](C)(C)C)NC(=O)CCCCCCCCCCCCCCCCC [SM(36:1)]
291.9 | CC/C=C\C/C=C\C/C=C\CCCCCCCC(=O)OC[C@H](COP(=O)([O-])OCC[N+](C)(C)C)OC(=O)CCCCCC/C=C\C/C=C\C/C=C\CCCCC [PC(38:6)]

Same assay, conditions: [M+H]+; instrument: DT; single field, calibrated with Agilent tune mix (Agilent)

Compound | collision cross section (N2) [Å²]
CCCCCCCCCCCCC=CC[C@@H](O)[C@H](COP(=O)([O-])OCC[N+](C)(C)C)NC(=O)CCCCCCCCCCCCCCC [SM(34:1)] | 283.9
CCCC/C=C\C/C=C\CCCCCCCC(=O)O[C@H](COC(=O)CCCCCCC/C=C\CCCCCCCCC)COP(=O)(O)O[C@H]1C(O)C(O)C(O)[C@@H](O)C1O (stereo not given in full) [PI(36:3)] | 296.4
CCCCC/C=C\C/C=C\C/C=C\C/C=C\CCCCCC(=O)O[C@H](COC(=O)CCCCCCC/C=C\C/C=C\CCCCC)COP(=O)(O)OC[C@H](N)C(=O)O [PS(40:6)] | 289.6

Now from value to molecule:

collision cross section (N2) [Å²] | Compound
283.4 | CCCCCCCCCCCCCCCCCCCC(=O)O[C@H](COC(=O)CCCCCCCCCCC)COP(=O)([O-])OCC[N+](C)(C)C [PC(32:0)]
292.1 | CCCCC/C=C\C/C=C\C/C=C\CCCCC(=O)OC[C@H](COP(=O)(O)OC[C@H](N)C(=O)O)OC(=O)CCCCCCCCCCC/C=C\C/C=C\CCCCC [PS(40:5)]
285.4 | CCCC/C=C\CCCCCCCC(=O)OC[C@H](COP(=O)(O)OC[C@@H](O)CO)OC(=O)CCCCCCCCCCC/C=C\C/C=C\CCCCC [PG(36:3)]
285.1 | CCCCCC/C=C\CCCCCCCC(=O)OC[C@H](COP(=O)(O)OCCN)OC(=O)CCCCCCCCC/C=C\CCCCCCCCCC [PE(38:2)]
289.1 | CCCCCCCCCCCCC=CC[C@@H](O)[C@H](COP(=O)([O-])OCC[N+](C)(C)C)NC(=O)CCCCCCCCCCCCCCCCC [SM(36:1)]
295.2 | CCCCC/C=C\C/C=C\CCCCCCCCCCCC(=O)O[C@H](COC(=O)CCCCCCC/C=C\CCCCCCCC)COP(=O)(O)OC[C@H](N)C(=O)O [PS(40:3)]
298.4 | CCCCCCCCCCCCC=CC[C@@H](O)[C@H](COP(=O)([O-])OCC[N+](C)(C)C)NC(=O)CC=CCCCCCCCCCCCCCCCCCC [SM(40:2)]

Same assay, conditions: [M+NH4]+; instrument: DT; single field, calibrated with Agilent tune mix (Agilent)

Compound | collision cross section (N2) [Å²]
CCCC/C=C\C/C=C\CCCCCCCC(=O)O[C@H](COC(=O)CCCCCCC/C=C\CCCCCCCCC)COP(=O)(O)O[C@H]1C(O)C(O)C(O)[C@@H](O)C1O (stereo not given in full) [PI(36:3)] | 297.4
CC/C=C\C/C=C\C/C=C\C/C=C\C/C=C\CCCCCC(=O)OC[C@@H](COC(=O)CCCCCCC/C=C\CCCCC)OC(=O)CCCCCCCCCCCCCCCCCC [TG(56:6)] | 328.3

More lines, now with the values ahead:

collision cross section (N2) [Å²] | Compound
286.5 | CCCC/C=C\CCCCCCCC(=O)OC[C@H](COP(=O)(O)OC[C@@H](O)CO)OC(=O)CCCCCCCCCCC/C=C\C/C=C\CCCCC [PG(36:3)]
313 | CCCCCCCCC/C=C\CCCCCCCC(=O)OC[C@@H](COC(=O)CCCCCCCCCCCCCC)OC(=O)CCCCCCCCCCCCCC [TG(49:1)]

Same assay, conditions: [M+Na]+; instrument: DT; single field, calibrated with Agilent tune mix (Agilent)

Compound | collision cross section (N2) [Å²]
CCCCCCCC/C=C\CCCCCCCC(=O)OC[C@@H](O)COP(=O)([O-])OCC[N+](C)(C)C [LPC(18:1)] | 236.1
CCCC/C=C\C/C=C\CCCCCCCC(=O)O[C@H](COC(=O)CCCCCCC/C=C\CCCCCCCCC)COP(=O)(O)O[C@H]1C(O)C(O)C(O)[C@@H](O)C1O (stereo not given in full) [PI(36:3)] | 295.5
CC/C=C\C/C=C\C/C=C\CCCCCCCC(=O)OC[C@H](COP(=O)([O-])OCC[N+](C)(C)C)OC(=O)CCCCCC/C=C\C/C=C\C/C=C\CCCCC [PC(38:6)] | 293.3
CCCCC/C=C\C/C=C\C/C=C\C/C=C\CCCCCC(=O)O[C@H](COC(=O)CCCCCCC/C=C\C/C=C\CCCCC)COP(=O)(O)OC[C@H](N)C(=O)O [PS(40:6)] | 293.9

The remaining lines, values ahead:

collision cross section (N2) [Å²] | Compound
296.7 | CCCCC/C=C\C/C=C\C/C=C\CCCCC(=O)OC[C@H](COP(=O)(O)OC[C@H](N)C(=O)O)OC(=O)CCCCCCCCCCC/C=C\C/C=C\CCCCC [PS(40:5)]
290 | CCCCCCCCCCCCC=CC[C@@H](O)[C@H](COP(=O)([O-])OCC[N+](C)(C)C)NC(=O)CCCCCCCCCCCCCCCCC [SM(36:1)]

Same assay, conditions: [M-H]-; instrument: DT; single field, calibrated with Agilent tune mix (Agilent)

collision cross section (N2) [Å²] | Compound
285.7 | CCCCC/C=C\C/C=C\C/C=C\CCCCC(=O)OC[C@H](COP(=O)(O)OC[C@H](N)C(=O)O)OC(=O)CCCCCCCCCCC/C=C\C/C=C\CCCCC [PS(40:5)]
265.1 | CCCCCCCCCCCCCCCCC(=O)O[C@H](COC(=O)CCCCCCCCCCCCCC)COP(=O)(O)OC[C@@H](O)CO [PG(32:0)]
272.8 | CCCC/C=C\CCCCCCCC(=O)OC[C@H](COP(=O)(O)OC[C@@H](O)CO)OC(=O)CCCCCCCCCCC/C=C\C/C=C\CCCCC [PG(36:3)]
273.3 | CCCCC/C=C\C/C=C\CCCCCCCCCCCC(=O)O[C@H](COC(=O)CCCCCCC/C=C\CCCCCC)COP(=O)(O)OCCN [PE(38:3)]
284.9 | CCCCC/C=C\C/C=C\C/C=C\C/C=C\CCCCCC(=O)O[C@H](COC(=O)CCCCCCC/C=C\C/C=C\CCCCC)COP(=O)(O)OC[C@H](N)C(=O)O [PS(40:6)]

Details: [M+Na]+; instrument: DT; stepped-field

Compound | collision cross section (N2) [Å²]
CCCCC/C=C\C/C=C\C/C=C\C/C=C\CCCC(=O)O[C@H](COCCCCCCCCCCCCCCCC)COP(=O)(O)OCCN [PE(o36:4)] | 281.6
CCCCCCCCCCCCC=CC[C@@H](O)[C@H](COP(=O)([O-])OCC[N+](C)(C)C)NC(=O)CCCCCCCCCCCCCCC [SM(34:1)] | 285.1
CCCCC/C=C\C/C=C\C/C=C\C/C=C\C/C=C\CCC(=O)O[C@H](COCCCCCCCCCCCCCCCC)COP(=O)(O)OCCN [PE(o38:5)] | 287.7

Results, then the molecule that gave them:

collision cross section (N2) [Å²] | Compound
289.3 | CCCCC/C=C\C/C=C\CCCCCCCCCCCC(=O)O[C@H](COC(=O)CCCCCCC/C=C\CCCCCC)COP(=O)(O)OCCN [PE(38:3)]
285.4 | CCCCC/C=C\C/C=C\C/C=C\CCCCC(=O)O[C@H](COCCCCCCCCCCCCCCCCCC)COP(=O)(O)OCCN [PE(o36:3)]
292.4 | CCCCCCCCCCCCC=CC[C@@H](O)[C@H](COP(=O)([O-])OCC[N+](C)(C)C)NC(=O)CCCCCCCCCCCCCCCCC [SM(36:1)]
301.7 | CCCCCCCCCCCCC=CC[C@@H](O)[C@H](COP(=O)([O-])OCC[N+](C)(C)C)NC(=O)CC=CCCCCCCCCCCCCCCCCCC [SM(40:2)]

Details: [M+H]+; instrument: DT; stepped-field

collision cross section (N2) [Å²] | Compound
236.2 | CCCCCCCC/C=C\CCCCCCCC(=O)OC[C@@H](O)COP(=O)([O-])OCC[N+](C)(C)C [LPC(18:1)]
276.6 | CCCC/C=C\CCCCCCCCCC(=O)OC[C@H](COP(=O)(O)OCCN)OC(=O)CCCCCCCCC/C=C\CCCC [PE(16:1/16:1)]
297.2 | CCCCC/C=C\C/C=C\C/C=C\C/C=C\CCCC(=O)O[C@H](COCCCCCCCCCCCCCCCC)COP(=O)([O-])OCC[N+](C)(C)C [PC(o36:4)]
